According to article PMC6036132, “In Silico Workflow for the Discovery of Natural Products Activating the G Protein-Coupled Bile Acid Receptor 1” (Frontiers in Chemistry, 2018):

Target: T1, G protein-coupled bile acid receptor 1 (GPBAR1) (Homo sapiens, UniProt Q8TDU6)
T1 construct: full-length GPBAR1 expression plasmid (Origene), transiently transfected in HEK 293T cells with CRE-Luc and EGFP plasmids
T1 sequence (Q8TDU6 1-330): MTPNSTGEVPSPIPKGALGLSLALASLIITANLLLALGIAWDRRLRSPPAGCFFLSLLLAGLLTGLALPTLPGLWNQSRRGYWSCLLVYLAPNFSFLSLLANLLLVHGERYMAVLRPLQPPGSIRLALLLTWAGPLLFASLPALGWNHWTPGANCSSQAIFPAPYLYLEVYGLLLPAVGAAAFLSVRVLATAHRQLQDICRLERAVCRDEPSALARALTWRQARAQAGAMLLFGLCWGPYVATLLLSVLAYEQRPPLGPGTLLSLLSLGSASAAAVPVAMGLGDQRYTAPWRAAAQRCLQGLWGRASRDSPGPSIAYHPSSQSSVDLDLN
Experiment: CRE-luciferase reporter assay in transfected HEK […] cells, EGFP-normalised
Type: cell-based
Details: agonist; 18 h; relative to 10 μM LCA = 100%

C[C@H](CCC(=O)O)[C@H]1CC[C@H]2[C@@H]3[C@H](O)C[C@@H]4C[C@H](O)CC[C@]4(C)[C@H]3CC[C@]12C [compound 3, chenodeoxycholic acid] was tested, and the “Activity (at 5 μM)” value was 66.69 ± 8.72%.
